Measurements published in ChEMBL document CHEMBL4837223, “Anti-angiogenesis Function of Ononin via Suppressing the MEK/Erk Signaling Pathway” (J Nat Prod, 2021).
Activity calls are given as the source filed them. No cut-off for these calls is given here.

Tests used:
HUVEC [1] = assay: Induction of apoptosis in VEGF-stimulated HUVEC cells assessed as mitochondrial membrane potential alteration at 250 nM measured after 48 hrs by JC-1 staining based flow cytometry; type: functional, cell-based; settings: Homo sapiens
HUVEC [2] = assay: Induction of apoptosis in VEGF-stimulated HUVEC cells assessed as increase in cleaved caspase-9 protein expression at 250 nM measured after 48 hrs by western blot analysis; type: functional, cell-based; settings: Homo sapiens
HUVEC [3] = assay: Induction of apoptosis in VEGF-stimulated HUVEC cells assessed as increase in late apoptotic cells at 250 nM measured after 48 hrs by AnnexinV-FITC/PI staining based flow cytometry; type: functional, cell-based; settings: Homo sapiens
HUVEC [4] = assay: Induction of apoptosis in VEGF-stimulated HUVEC cells assessed as increase in Bax/Bcl2 ratio at 250 nM measured after 48 hrs by western blot analysis; type: functional, cell-based; settings: Homo sapiens
HUVEC [5] = assay: Induction of apoptosis in VEGF-stimulated HUVEC cells assessed as increase in cleaved caspase-3 protein expression at 250 nM measured after 48 hrs by western blot analysis; type: functional, cell-based; settings: Homo sapiens
HUVEC [6] = assay: Induction of apoptosis in VEGF-stimulated HUVEC cells assessed as increase in early apoptotic cells at 250 nM measured after 48 hrs by AnnexinV-FITC/PI staining based flow cytometry; type: functional, cell-based; settings: Homo sapiens
HUVEC [7] = assay: Antiangiogenic activity against VEGF-stimulated HUVEC cells assessed as reduction in number of sprouting tubules at 5 uM measured after 48 hrs by Matrigel assay based microscopic analysis; type: functional, cell-based; settings: Homo sapiens
HUVEC [8] = assay: Induction of apoptosis in VEGF-stimulated HUVEC cells assessed as increase in cleaved caspase-9 protein expression at 5 uM measured after 48 hrs by western blot analysis; type: functional, cell-based; settings: Homo sapiens
HUVEC [9] = assay: Downregulation of HIF-1alpha expression in VEGF-stimulated HUVEC cells at 5 uM measured after 48 hrs by DAPI staining based confocal microscopy; type: functional, cell-based; settings: Homo sapiens
HUVEC [10] = assay: Effect on HIF-1beta expression in VEGF-stimulated HUVEC cells at 5 uM measured after 48 hrs by western blot analysis; type: functional, cell-based; settings: Homo sapiens
HUVEC [11] = assay: Induction of apoptosis in VEGF-stimulated HUVEC cells assessed as mitochondrial membrane potential alteration at 5 uM measured after 48 hrs by JC-1 staining based flow cytometry; type: functional, cell-based; settings: Homo sapiens
HUVEC [12] = assay: Induction of apoptosis in VEGF-stimulated HUVEC cells assessed as increase in Cytochrome c protein expression at 5 uM measured after 48 hrs by DAPI staining based confocal microscopy; type: functional, cell-based; settings: Homo sapiens
[13] = target: Dual specificity mitogen-activated protein kinase kinase; MEK1/2 (Homo sapiens) (UniProt P36507+Q02750); assay: Inhibition of MEK1/2 in VEGF-stimulated HUVEC cells assessed as reduction in phosphorylated MEK1/2 level at 5 uM incubated for 48 hrs by immunoblot analysis; type: cell-based
Sequence of Dual specificity mitogen-activated protein kinase kinase; MEK1/2 (Homo sapiens) (P36507 whole entry, looked up): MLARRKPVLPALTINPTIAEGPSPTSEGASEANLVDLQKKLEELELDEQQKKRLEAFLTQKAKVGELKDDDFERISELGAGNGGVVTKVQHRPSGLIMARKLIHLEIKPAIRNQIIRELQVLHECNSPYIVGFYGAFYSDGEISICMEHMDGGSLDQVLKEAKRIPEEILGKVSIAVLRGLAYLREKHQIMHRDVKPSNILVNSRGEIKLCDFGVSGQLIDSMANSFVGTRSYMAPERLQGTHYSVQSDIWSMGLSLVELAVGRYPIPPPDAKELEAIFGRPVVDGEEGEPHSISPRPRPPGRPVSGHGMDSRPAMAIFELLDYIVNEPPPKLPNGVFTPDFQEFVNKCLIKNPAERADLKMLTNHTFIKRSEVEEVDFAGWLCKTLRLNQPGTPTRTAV
Sequence of Dual specificity mitogen-activated protein kinase kinase; MEK1/2 (Homo sapiens) (Q02750 whole entry, looked up): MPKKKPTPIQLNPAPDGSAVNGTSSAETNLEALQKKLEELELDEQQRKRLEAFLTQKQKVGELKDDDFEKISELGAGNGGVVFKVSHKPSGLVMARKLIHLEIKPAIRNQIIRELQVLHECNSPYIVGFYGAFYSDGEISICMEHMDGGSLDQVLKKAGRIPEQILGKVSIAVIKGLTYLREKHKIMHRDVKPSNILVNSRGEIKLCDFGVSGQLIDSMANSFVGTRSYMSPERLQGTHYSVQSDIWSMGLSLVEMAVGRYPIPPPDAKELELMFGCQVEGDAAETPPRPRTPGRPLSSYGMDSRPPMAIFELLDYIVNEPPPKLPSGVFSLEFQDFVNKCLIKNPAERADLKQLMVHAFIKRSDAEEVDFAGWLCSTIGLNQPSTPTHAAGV

HUVEC [14] = assay: Antiangiogenic activity against VEGF-induced HUVEC cells assessed as reduction in cell migration at 5 uM measured after 48 hrs by Transwell assay; type: functional, cell-based; settings: Homo sapiens
HUVEC [15] = assay: Induction of apoptosis in VEGF-stimulated HUVEC cells at 5 uM measured after 48 hrs by AnnexinV-FITC/PI staining based flow cytometry; type: functional, cell-based; settings: Homo sapiens
HUVEC [16] = assay: Downregulation of HIF-1alpha expression in VEGF-stimulated HUVEC cells at 5 uM measured after 48 hrs by western blot analysis; type: functional, cell-based; settings: Homo sapiens
[17] = target: Mitogen-activated protein kinase; ERK1/ERK2 (Homo sapiens) (UniProt P27361+P28482); assay: Inhibition of ERK1/2 in VEGF-stimulated HUVEC cells assessed as reduction in phosphorylated […] at 5 uM incubated for 48 hrs by immunoblot analysis; type: cell-based
Sequence of Mitogen-activated protein kinase; ERK1/ERK2 (Homo sapiens) (P27361 whole entry, looked up): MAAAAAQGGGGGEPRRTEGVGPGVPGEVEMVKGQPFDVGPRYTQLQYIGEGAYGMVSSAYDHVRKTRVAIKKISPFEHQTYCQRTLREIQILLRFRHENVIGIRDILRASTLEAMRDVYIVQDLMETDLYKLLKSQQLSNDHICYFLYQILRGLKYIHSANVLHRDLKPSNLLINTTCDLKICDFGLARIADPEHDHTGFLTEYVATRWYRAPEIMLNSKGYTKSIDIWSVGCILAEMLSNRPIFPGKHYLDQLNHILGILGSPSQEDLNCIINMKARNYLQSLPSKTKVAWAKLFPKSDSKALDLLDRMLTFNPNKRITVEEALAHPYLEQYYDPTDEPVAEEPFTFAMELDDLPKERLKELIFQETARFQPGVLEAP
Sequence of Mitogen-activated protein kinase; ERK1/ERK2 (Homo sapiens) (P28482 whole entry, looked up): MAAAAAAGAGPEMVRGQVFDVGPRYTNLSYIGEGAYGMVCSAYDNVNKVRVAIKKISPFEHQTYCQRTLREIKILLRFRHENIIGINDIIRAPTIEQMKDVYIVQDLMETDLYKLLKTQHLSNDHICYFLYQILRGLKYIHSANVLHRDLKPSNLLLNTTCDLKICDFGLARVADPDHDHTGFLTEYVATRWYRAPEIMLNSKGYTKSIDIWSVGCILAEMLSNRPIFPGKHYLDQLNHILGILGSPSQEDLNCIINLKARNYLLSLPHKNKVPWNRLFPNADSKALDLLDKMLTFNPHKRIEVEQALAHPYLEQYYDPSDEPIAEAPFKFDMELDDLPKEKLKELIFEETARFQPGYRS

HUVEC [18] = assay: Induction of apoptosis in VEGF-stimulated HUVEC cells assessed as increase in Bax/Bcl2 ratio at 5 uM measured after 48 hrs by western blot analysis; type: functional, cell-based; settings: Homo sapiens
HUVEC [19] = assay: Antiangiogenic activity against VEGF-induced HUVEC cells assessed as reduction in wound healing at 5 uM measured after 48 hrs by scratch-wound healing assay; type: functional, cell-based; settings: Homo sapiens
HUVEC [20] = assay: Inhibition of VEGFR2 expression in VEGF-induced HUVEC cells at 5 uM incubated for 48 hrs by DAPI staining based confocal microscopy; type: functional, cell-based; settings: Homo sapiens
HUVEC [21] = assay: Cytotoxicity against HUVEC cells assessed as reduction in cell vaibility at 5 uM incubated for 48 hrs by MTT assay; type: cell-based; settings: human
HUVEC [22] = assay: Induction of apoptosis in VEGF-stimulated HUVEC cells assessed as increase in cleaved caspase-3 protein expression at 5 uM measured after 48 hrs by western blot analysis; type: functional, cell-based; settings: Homo sapiens

For `CN[C@@H]1C[C@H]2O[C@@](C)([C@@H]1OC)n1c3ccccc3c3c4c(c5c6ccccc6n2c5c31)C(=O)NC4`, the Activity (HUVEC [1]) was “Active”, the Activity (HUVEC [2]) was “Active” and the Activity (HUVEC [3]) was “Active”. For the same compound, the Activity (HUVEC [4]) was “Active”, the Activity (HUVEC [5]) was “Active” and the Activity (HUVEC [6]) was “Active”.

For `COc1ccc(-c2coc3cc(O[C@@H]4O[C@H](CO)[C@@H](O)[C@H](O)[C@H]4O)ccc3c2=O)cc1` [ONONIN], the Activity (HUVEC [7]) was “Active”, the Activity (HUVEC [8]) was “Active” and the inhibition (HUVEC [9]) was “Active”. For the same compound, the Activity (HUVEC [10]) was “inactive”, the Activity (HUVEC [11]) was “Active” and the Activity (HUVEC [12]) was “Active”. For the same compound, the inhibition [13] was “Active”, the Activity (HUVEC [14]) was “Active” and the Activity (HUVEC [15]) was “Active”. For the same compound, the inhibition (HUVEC [16]) was “Active”, the inhibition [17] was “Active” and the Activity (HUVEC [18]) was “Active”. For the same compound, the Activity (HUVEC [19]) was “Active”, the inhibition (HUVEC [20]) was “Active” and the Activity (HUVEC [21]) was “Non-Toxic”. The Activity (HUVEC [22]) was “Active”.
